From patent US6887896B1, “7-[(7-Alkoxy)-chrom-3-en-6-yl]-heptatrienoic acid and 7-[(3-alkoxy)-5,6-dihydronaphthalen-2-yl]-heptatrienoic acid derivatives having serum glucose reducing activity” (Allergan, Inc., priority 2003, dated 2005) come the findings set out here.

Experiment [1] concerns the target T1, RXRβ (UniProt P28704).
T1 sequence (P28704 1-520): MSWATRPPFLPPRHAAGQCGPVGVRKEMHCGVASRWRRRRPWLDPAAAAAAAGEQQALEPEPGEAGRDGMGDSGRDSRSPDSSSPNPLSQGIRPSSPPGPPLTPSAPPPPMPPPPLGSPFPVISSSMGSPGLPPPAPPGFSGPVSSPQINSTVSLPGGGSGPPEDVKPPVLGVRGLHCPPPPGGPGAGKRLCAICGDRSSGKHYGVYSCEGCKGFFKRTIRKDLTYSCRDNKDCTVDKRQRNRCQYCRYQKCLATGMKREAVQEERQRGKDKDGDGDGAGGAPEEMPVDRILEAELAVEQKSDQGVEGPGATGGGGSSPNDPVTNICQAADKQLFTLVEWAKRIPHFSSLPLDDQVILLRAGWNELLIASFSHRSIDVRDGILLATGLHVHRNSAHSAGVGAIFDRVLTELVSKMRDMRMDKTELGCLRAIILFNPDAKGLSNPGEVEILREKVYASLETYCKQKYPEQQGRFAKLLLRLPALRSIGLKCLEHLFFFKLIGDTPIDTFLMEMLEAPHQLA
The experiment can be described thus: holoreceptor transactivation assay, RXRβ. Format: cell-based. The source says:
(§1) Specifically, one such assay is a chimeric receptor transactivation assay which tests for agonist-like activity in the R RAPE and RAR7 receptor subtypes, and which is based on work published by Feigner, P. L. and Holm, M (1989) Focus, 112 is described in detail in U.S. Pat. No. 5,455,265. The specification of U.S. Pat. No. 5,455,265 is hereby expressly incorporated by reference. A holoreceptor transactivation assay and a ligand binding assay which measure the antagonist/agonist like activity of the compounds of the invention, or their ability to bind to the several retinoid receptor subtypes, respectively, are described in published PCT Application No. WO WO93/11755 (particularly on pages 30-33 and 37-41) published on Jun. 24, 1993, the specification of which is also incorporated herein by reference. A detailed experimental procedure for holoreceptor transactivations has been described by Heyman et al. Cell 68, 397-406, (1992); Allegretto et al. J. Biol. Chem. 268, 26625-26633, and Mangelsdorf et al. The Retinoids: Biology, Chemistry and Medicine, pp 319-349, Raven Press Ltd., New York, which are expressly incorporated herein by reference. The results obtained in this assay are expressed in EC50 numbers, as they are also in the chimeric receptor transactivation assay. The results of the ligand binding assay are expressed in Ki numbers. (See Cheng et al. Biochemical Pharmacology Vol. 22 pp 3099-3108, expressly incorporated herein by reference.)
(§2) Efficacy in a transactivation assay is expressed as a percentage of the maximum potency attained by the compound compared to a standard which, in this case, is the compound named (2E,4E,1′S,2′S)-3-methyl-5-[2′-methyl-2′-(5,5,8,8-tetramethyl-5,6,7,8-tetrahydro-naphthalen-2-yl)-cyclopropyl]-penta-2,4-dienoic acid. This standard compound is described in U.S. Pat. No. 6,114,533.
(§3) The specification of this application for patent is organized in several sections in accordance with structural Formulas A through F each of which discloses a group of preferred compounds within the scope of the invention. Tables that disclose the activity of certain exemplary compounds of the invention in the above-described RXR receptor transactivation and binding assays are found in the corresponding sections. […] The transactivation data pertaining to the activation of RXR receptors were obtained in the holoreceptor assay.
(§4) Generally speaking, in the tables disclosing the results of transactivation and binding assays the numbers in parentheses indicate efficacy as a percentage compared to the standard compound, (2E,4E,1′S,2′S)-3-methyl-5-[2′-methyl-2′-(5,5,8,8-tetramethyl-5,6,7,8-tetrahydro-naphthalen-2-yl)cyclopropyl]-penta-2,4-dienoic acid and the other numbers indicate the measured EC50 and K; in nanomolar concentration.

The target of experiment [2] is T2, RARα (Homo sapiens, UniProt P10276).
T2 sequence (P10276 1-462): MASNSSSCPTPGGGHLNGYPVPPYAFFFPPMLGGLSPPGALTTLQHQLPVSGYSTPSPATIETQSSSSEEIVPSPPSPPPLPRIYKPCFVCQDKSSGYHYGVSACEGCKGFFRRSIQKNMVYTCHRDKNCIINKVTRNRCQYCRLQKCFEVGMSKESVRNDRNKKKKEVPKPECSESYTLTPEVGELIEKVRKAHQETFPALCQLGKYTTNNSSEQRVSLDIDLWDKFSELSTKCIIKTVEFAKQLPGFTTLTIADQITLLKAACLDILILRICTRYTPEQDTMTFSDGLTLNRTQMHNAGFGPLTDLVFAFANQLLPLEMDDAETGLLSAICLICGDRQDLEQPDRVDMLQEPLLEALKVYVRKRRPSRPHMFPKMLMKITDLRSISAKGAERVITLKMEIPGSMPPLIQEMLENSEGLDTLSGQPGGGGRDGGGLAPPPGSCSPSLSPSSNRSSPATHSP
The experiment in a line: ligand binding assay, RARα. Particulars: for Ki: read-out: RAR Bind. Ki α; for Kd: Table 9 (Formula F), read-out: RAR α Kd.
Source text: as §1, §4

Experiment [3] has as its target T3, RARβ (Homo sapiens, UniProt P10826).
T3 sequence (P10826 1-455): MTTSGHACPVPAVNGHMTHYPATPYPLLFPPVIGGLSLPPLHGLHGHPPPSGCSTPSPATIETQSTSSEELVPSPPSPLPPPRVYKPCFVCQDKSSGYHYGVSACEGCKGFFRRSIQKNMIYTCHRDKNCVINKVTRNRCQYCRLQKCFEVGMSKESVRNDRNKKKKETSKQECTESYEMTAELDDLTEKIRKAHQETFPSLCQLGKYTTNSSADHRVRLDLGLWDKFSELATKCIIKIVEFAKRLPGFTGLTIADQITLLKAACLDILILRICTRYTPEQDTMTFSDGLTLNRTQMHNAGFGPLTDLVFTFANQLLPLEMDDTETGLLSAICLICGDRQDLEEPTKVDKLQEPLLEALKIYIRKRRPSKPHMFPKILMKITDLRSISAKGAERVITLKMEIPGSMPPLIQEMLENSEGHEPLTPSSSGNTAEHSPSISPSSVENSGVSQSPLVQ
The experiment in a line: ligand binding assay, RARβ. As to conditions: for Ki: read-out: RAR Bind. Ki β; for Kd: Table 9 (Formula F), read-out: RAR β Kd.
Source text: as §1, §4

For experiment [4], the target named is T4, RXRα (Homo sapiens, UniProt P19793).
T4 construct: expressed in transfected cells
T4 sequence (P19793 1-462): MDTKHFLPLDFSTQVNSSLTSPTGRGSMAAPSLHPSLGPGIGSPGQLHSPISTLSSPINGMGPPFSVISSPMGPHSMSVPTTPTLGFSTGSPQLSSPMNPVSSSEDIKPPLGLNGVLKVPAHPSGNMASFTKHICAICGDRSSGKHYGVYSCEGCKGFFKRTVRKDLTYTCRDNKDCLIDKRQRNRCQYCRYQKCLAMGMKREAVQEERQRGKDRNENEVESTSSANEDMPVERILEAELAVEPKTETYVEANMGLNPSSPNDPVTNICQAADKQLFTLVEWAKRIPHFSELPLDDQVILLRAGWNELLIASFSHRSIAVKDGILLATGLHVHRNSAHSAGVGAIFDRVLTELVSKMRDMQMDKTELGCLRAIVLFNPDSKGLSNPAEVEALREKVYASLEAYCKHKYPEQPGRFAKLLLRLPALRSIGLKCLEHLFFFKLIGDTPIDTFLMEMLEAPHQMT
The experiment in a line: ligand binding assay, RXRα. As to conditions: for Ki: read-out: RXR Bind Ki α; for Kd: Table 9 (Formula F), read-out: RXR α Kd.
Source text: as §1, §4

The target in experiment [5] is T1, RXRβ. The experiment can be described thus: ligand binding assay, RXRβ. Particulars: for Ki: read-out: RXR Bind Ki β; for Kd: Table 9 (Formula F), read-out: RXR β Kd.
Source text: as §1, §4

Experiment [6] deals with T5, RARγ (Homo sapiens, UniProt P13631).
T5 sequence (P13631 1-454): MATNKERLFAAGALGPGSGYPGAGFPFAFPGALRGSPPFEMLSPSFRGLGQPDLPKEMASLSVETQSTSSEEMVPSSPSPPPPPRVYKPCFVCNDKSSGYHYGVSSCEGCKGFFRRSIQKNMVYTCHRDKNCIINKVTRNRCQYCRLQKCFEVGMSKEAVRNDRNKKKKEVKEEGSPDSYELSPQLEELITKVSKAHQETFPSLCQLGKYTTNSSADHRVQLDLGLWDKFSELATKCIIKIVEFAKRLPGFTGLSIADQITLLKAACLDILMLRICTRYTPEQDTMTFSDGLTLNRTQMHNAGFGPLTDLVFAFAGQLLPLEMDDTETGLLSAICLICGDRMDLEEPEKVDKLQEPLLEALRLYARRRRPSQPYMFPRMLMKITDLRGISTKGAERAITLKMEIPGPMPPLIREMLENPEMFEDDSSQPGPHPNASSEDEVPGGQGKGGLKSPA
The experiment in a line: ligand binding assay, RARγ. As to conditions: for Ki: read-out: RAR Bind. Ki γ; for Kd: Table 9 (Formula F), read-out: RAR γ Kd.
Source text: as §1, §4

Experiment [7] addresses T4, RXRα. The experiment in a line: holoreceptor transactivation assay, RXRα. The class given is cell-based.
Source text: as §1, §2, §3, §4

Each structure is given as a SMILES string. Where only a bound is given, the exact number is not on record here.

In the case of `CCOc1cc2c(cc1\C(C)=C/C=C/C(C)=C/C(=O)O)C(C(C)C)=CC(C)(C)O2` [Compound 47, 7-(7-Ethoxy-4-isopropyl-2,2-dimethyl-2H-chromen-6-yl)-3-methyl-octa-2E,4E,6Z-trienoic acid], the concentration giving a half-maximal response (EC50) in experiment [1] (holoreceptor transactivation, read-out: RXR Trans. EC50 β) came to 288 nM. Moreover, in experiment [1] (percentage compared to the standard compound), the “RXR Trans. efficacy (number in parentheses) β” value worked out at 6%. In addition, the Ki is > 10000 nM in experiment [2], 3900 nM in experiment [3], 15 nM in experiment [4] and 150 nM in experiment [5].
On to `CCOc1cc2c(cc1\C(C)=C(F)/C=C/C(C)=C/C(=O)O)C(C(C)C)=CC(C)(C)O2` [Compound 124, (2E,4E,6E)-7-(7-Ethoxy-4-isopropyl-2,2-dimethyl-2H-Chromen-6-yl)-6-fluoro-3-methyl-octa-2.46-trienoic acid], for which the Ki in experiment [2] was determined as 523 nM; in experiment [3] it was 1000 nM; in experiment [6], 3300 nM; in experiment [4], 6 nM; in experiment [5], 42 nM.
Consider `CC(/C=C/C(F)=C(/C)c1cc2c(c(Br)c1OC(C)C)C(C)(C)CC=C2C(C)(C)C)=C\C(=O)O` [Compound A-175, (2E,4E,6E)-7-(4 Bromo-8-tert-butyl-3-isopropoxy-5,5-dimethyl-5,6 dihydro-naphthalen-2-yl)-6-fluoro-3-methyl-octa-2,4,6-trienoic acid], for which the dissociation constant Kd in experiment [2] turned out to be 458 nM; in experiment [3] it was 280 nM; in experiment [6], 866 nM; in experiment [4], 9 nM; in experiment [5], 31 nM.
For `CCCOc1c(\C(C)=C(F)/C=C/C(C)=C/C(=O)O)cc2c(c1Br)C(C)(C)CC=C2C(C)C` [Compound A-173, (2E,4E,6E)-7-(4-Bromo-8-isopropyl-5,5-dimethyl-3-propoxy-5,6-dihydro-nahthalen-2-yl)-6-fluoro-3-methyl-octa-2,4,6-trienoic acid], the EC50 in experiment [7] (holoreceptor transactivation, read-out: RXR Trans. EC50 α) was 1 nM. In experiment [7] (percentage compared to the standard compound, read-out: RXR Trans. efficacy (number in parentheses) α), the Emax was found to be 5%. The dissociation constant Kd in experiment [2] worked out at 91 nM; in experiment [3], 192 nM; in experiment [6], 810 nM; in experiment [4] it was 2 nM; in experiment [5] it was 11 nM.
In the case of `CCCCOc1cc2c(cc1\C(C)=C(F)/C=C/C(C)=C/C(=O)O)C(C(C)C)=CC(C)(C)O2` [Compound 126, (2E,4E,6E)-7-(7-Butoxy-4-isopropyl-2,2-dimethyl-2H-chromen-6-yl)-6-fluoro-3-methyl-octa-2,4,6-trienoic acid], the inhibition constant (Ki) turned out to be 860 nM in experiment [2]; 522 nM in experiment [3]; 3000 nM in experiment [6]; 8 nM in experiment [4]; 59 nM in experiment [5].
In the case of `CCCOc1cc2c(cc1\C(C)=C(F)/C=C/C(C)=C/C(=O)O)C(C(C)C)=CC(C)(C)O2` [Compound 125, (2E,4E,6E) 6-Fluoro-7-(4-isopropyl-2,2-dimethyl-7-propoxy-2H-chromen-6-yl)-3-methyl-octa-2,4,6-trienoic acid], the Ki in experiment [2] came out at 12 nM; in experiment [3], 3 nM; in experiment [6], 43 nM; in experiment [4], 8 nM; in experiment [5] it was 73 nM.
